# Experimental data as given in ChEMBL document CHEMBL4627357, “An osteoinductive effect of phytol on mouse mesenchymal stem cells (C3H10T1/2) towards osteoblasts” (Bioorg Med Chem Lett, 2020).
# The source made the active and inactive calls. The rule behind the calls is not given here.
# Key:
# [1] = test system: C3H 10T1/2; experiment: Induction of osteoblast differentiation in mouse C3H10T1/2 cells assessed as downregulation of Smad7 protein expression at 40 uM measured after 7 days by Western blot analysis; type: functional, cell-based
# [2] = test system: C3H 10T1/2; experiment: Cytotoxicity against mouse C3H10T1/2 cells assessed as dead cells at 40 uM measured after 72 hrs by MUSE cell analyzer (reference value: 4.2%); type: cell-based; conditions: c3h 10t1/2, 72 h
# [3] = test system: C3H 10T1/2; experiment: Induction of osteoblast differentiation in mouse C3H10T1/2 cells assessed as increase in Runx2 mRNA expression at 40 uM measured after 3 to 7 days by RT-qPCR analysis; type: functional, cell-based
# [4] = test system: C3H 10T1/2; experiment: Induction of osteoblast differentiation in mouse C3H10T1/2 cells assessed as increase in type-1 collagen mRNA expression at 40 uM measured after 7 days by RT-qPCR analysis; type: functional, cell-based
# [5] = test system: C3H 10T1/2; experiment: Induction of osteoblast differentiation in mouse C3H10T1/2 cells assessed as increase in ALP mRNA expression at 40 uM measured after 3 days by RT-qPCR analysis; type: functional, cell-based
# [6] = test system: C3H 10T1/2; experiment: Upregulation of Runx2 mRNA expression in mouse C3H10T1/2 at 40 uM measured after 72 hrs by SYBR green based RT-qPCR analysis; type: functional, cell-based
# [7] = test system: C3H 10T1/2; experiment: Cytotoxicity against mouse C3H10T1/2 cells assessed as spindle shaped and flattened appearance at 40 uM measured after 72 hrs by FDA staining based assay; type: cell-based; conditions: c3h 10t1/2, 72 h
# [8] = test system: C3H 10T1/2; experiment: Induction of osteoblast differentiation in mouse C3H10T1/2 cells assessed as increase in osteocalcin mRNA expression at 40 uM measured after 3 to 7 days by RT-qPCR analysis; type: functional, cell-based
# [9] = test system: C3H 10T1/2; experiment: Induction of osteoblast differentiation in mouse C3H10T1/2 cells assessed as upregulation of miRNA-21a mRNA expression at 40 uM measured after 7 days by RT-qPCR analysis; type: functional, cell-based
# [10] = Cytotoxicity against mouse C3H10T1/2 cells assessed as live cells at 40 uM measured after 72 hrs by MUSE cell analyzer (reference value: 95.8%); type: cell-based, C3H 10T1/2; conditions: read-out: Activity
# [11] = test system: C3H 10T1/2; experiment: Induction of osteoblast differentiation in mouse C3H10T1/2 cells assessed as increase in calcium deposition at 40 uM measured after 14 days by alizarin red staining based assay; type: functional, cell-based
# [12] = test system: C3H 10T1/2; experiment: Induction of osteoblast differentiation in mouse C3H10T1/2 cells assessed as increase in type-1 collagen mRNA expression at 40 uM measured after 3 days by RT-qPCR analysis; type: functional, cell-based
# [13] = test system: C3H 10T1/2; experiment: Induction of osteoblast differentiation in mouse C3H10T1/2 cells assessed as increase in osterix mRNA expression at 40 uM measured after 3 to 7 days by RT-qPCR analysis; type: functional, cell-based
# [14] = test system: C3H 10T1/2; experiment: Induction of osteoblast differentiation in mouse C3H10T1/2 cells assessed as formation of mineralized nodule at 40 uM measured after 14 days by von-Kossa staining based assay; type: functional, cell-based
# [15] = test system: C3H 10T1/2; experiment: Induction of osteoblast differentiation in mouse C3H10T1/2 cells assessed as increase in ALP mRNA expression at 40 uM measured after 7 days by RT-qPCR analysis; type: functional, cell-based
# [16] = test system: C3H 10T1/2; experiment: Induction of osteoblast differentiation in mouse C3H10T1/2 cells assessed as upregulation in Runx2 protein expression at 40 uM measured after 7 days by Western blot analysis; type: functional, cell-based
compound,measurement,setting,value
C/C(=C\CO)CCC[C@H](C)CCC[C@H](C)CCCC(C)C [TRANS-PHYTOL],Activity,[1],Active
same,Activity,[2],4%
same,Activity,[3],Active
same,Activity,[4],Active
same,Activity,[5],inactive
same,Activity,[6],Active
same,Activity,[7],Non-Toxic
same,Activity,[8],inactive
same,Activity,[9],Active
same,"viability at 72 h, 40 µM",[10],96%
same,Activity,[11],Active
same,Activity,[12],inactive
same,Activity,[13],inactive
same,Activity,[14],Active
same,Activity,[15],Active
same,Activity,[16],Active
